Patent US20220081446A1, “CRYSTAL FORM OF 1,2,3-TRIAZOLO[1,5-A]PYRAZINES DERIVATIVE AND PREPARATION METHOD FOR CRYSTAL FORM” (Jiangsu Hengrui Medicine Co., Ltd., priority 2019, published 2022)

Experiments:
[1] = DVS (dynamic vapor sorption) hygroscopicity test; assay type: physicochemical
Description: According to the definition of hygroscopicity characteristics and hygroscopic weight gain in “9103 guiding principles for hygroscopicity of drugs” in the fourth volume of Chinese Pharmacopoeia (2015 Edition),
DVS indicates dynamic vapor sorption: the determination is carried out by SMS DVS Advantage at 25° C. with a humidity change of 50%-95%-0%-95%-50%, and the step of 10% (the last step is 5%) (The specific range of humidity is subject to the corresponding spectrum, and the methods listed here are those used in most cases), and the judgment standard is that dm/dt is not more than 0.02%.

[2] = Investigation of influencing factors (stability under heating, illumination, high humidity); assay type: physicochemical
Description: The sample of the crystal form A (Example 5) was spread out, and its stability was investigated under the conditions of heating (40° C., 60° C.), illumination (4500 Lux) and high humidity (RH 75%, RH 90%). The sampling was investigated over 30 days.

[3] = Long term/accelerated stability; assay type: physicochemical
Description: The crystal form A (Example 5) was placed at 25° C., 60% RH and 40° C., 75% RH to investigate its stability

[4] = from PCT/CN2018/097170; cited from earlier work
HepG2 cells [5] = settings: read-out: CC50 (proliferation inhibition), 72 hours, CellTiter-Glo
Description: HepG2 cells taken in logarithmic growth stage were prepared into the cell suspension through digestion with trypsin, and then the suspension was cultured with 6,000 cells/well in 96-well plate (96-well White/Clear Flat Bottom plate) under 5% carbon dioxide at 37° C. for 16-20 hours. On the second day, the compound was dissolved in pure DMSO with the concentration of 20 mM, and then the gradient dilution of the compound was carried out by using Automatic pipetting workstation (Bravo) with the dilution times of 3, where there were 8 concentration points for each compound, and the control well was DMSO; next, the compound with each concentration treated by DMSO was diluted 200 times using EMEM (containing 10% FBS) medium. The cell culture plate inoculated on the first day was taken out, and then the medium in the well plate was sucked out by using the negative pressure suction device. Into each well, the prepared medium containing each concentration of compound was added respectively, which was cultured with 100 μl/well at 37° C. for 72 hours. On the fifth day, the 96-well cell plate was taken out, and the freshly prepared CellTiter Glo was added into each well with 100 μL/well, left to stand for 5-10 minutes, sealed for the bottom of the 96-well plate with a white back cover film (PerkinElmer), placed into the Microplate Reader, and measured for the Luminescence signal by the reader.

HBV capsid protein = HBV capsid protein (Hepatitis B virus genotype D subtype ayw, UniProt P03146); settings: from PCT/CN2018/097170; cited from earlier work
Chain of HBV capsid protein (P03146 whole entry): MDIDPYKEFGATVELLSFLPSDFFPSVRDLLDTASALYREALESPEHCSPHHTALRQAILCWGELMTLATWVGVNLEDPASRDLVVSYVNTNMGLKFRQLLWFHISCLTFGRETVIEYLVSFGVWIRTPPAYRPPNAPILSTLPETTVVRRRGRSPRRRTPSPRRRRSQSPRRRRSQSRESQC

HepG2 cells [6] = settings: from PCT/CN2018/097170; cited from earlier work
[7] = system: HBV DNA replication in HepG2.2.15 cells; experiment: In vitro anti-HBV activity test (quantitative analysis of intracellular HBV DNA); assay type: cell-based; settings: HBV DNA by quantitative PCR
Excerpt: Test Example 1: In Vitro Anti-HBV Activity Test (Quantitative Analysis of Intracellular HBV DNA)
HepG2.2.15 cells were stable expression cell lines integrated with HBV genome, which can be secreted out of cells through replication, transcription, translation and packaging into virus particles with HBV DNA. In this study, the quantitative PCR method was used to quantitatively analyze the HBV DNA produced by the proliferation of HepG2.2.15 in vitro, thus determining the activity of the compounds in the present disclosure to inhibit HBV DNA replication through inhibiting the assembly of HBV capsid protein.
HepG2.2.15 cells were cultured in DMEM/high glucose medium (10% FBS, 400 μg/ml G418) and passaged every 3 days. On the day of experiment, fresh cell culture medium was used to prepare cell suspension, which was cultured with 40,000 cells/well in 96 well plate (Corning, #3599) under 5% carbon dioxide at 37° C. […] The extracted DNA was analyzed by HBV DNA quantitative PCR using Hepatitis B virus nucleic acid quantitative detection kit from Tepp biology, with the method specifically mentioned in the instructions of the kit. The quantitative standard curve was determined in parallel experiment using the own standard sample of the kit. Each sample was converted quantitatively based on the standard curve. […]

C[C@H]1Cn2nnc(C(=O)N[C@H](C)C(F)(F)F)c2CN1C(=O)Nc1ccc(F)c(F)c1 [Crystal form A, (S)-N^5-(3,4-difluorophenyl)-6-methyl-N^3-((R)-1,1,1-trifluoropropan-2-yl)-6,7-dihydro-[1,2,3]triazolo[1,5-a]pyrazine-3,5(4H)-dicarbonamide]
hygroscopicity class ([1]; 70% RH): no or little hygroscopicity | hygroscopicity class ([1]; 90% RH): slight hygroscopicity, or no/little hygroscopicity | crystal form after DVS detection (XRPD) ([1]; before vs after DVS): remained unchanged | desorption process ([1]; humidity change from 0% to 95% RH): consistent with the adsorption process | hygroscopic weight gain ([1]; normal storage condition, 25° C. and 60% RH): about 0.07% | Color and character ([2]; 4500 Lux, day 5): white solid | Purity % ([2]; 4500 Lux, day 5): 98.27% | Color and character ([2]; 4500 Lux, day 10): white solid | Purity % ([2]; 4500 Lux, day 10): 98.27% | Color and character ([2]; 4500 Lux, day 30): white solid | Crystal form ([2]; 4500 Lux, day 30): No changed | Purity % ([2]; 4500 Lux, day 30): 98.30% | Color and character ([2]; RH 75%, day 5): white solid | Purity % ([2]; RH 75%, day 5): 98.26% | Weight gain % ([2]; RH 75%, day 5): 2.28% | Color and character ([2]; RH 75%, day 10): white solid | Purity % ([2]; RH 75%, day 10): 98.29% | Weight gain % ([2]; RH 75%, day 10): 2.72% | Color and character ([2]; RH 75%, day 30): white solid | Crystal form ([2]; RH 75%, day 30): No changed | Purity % ([2]; RH 75%, day 30): 98.29% | Weight gain % ([2]; RH 75%, day 30): 6.68% | Color and character ([2]; RH 90%, day 5): white solid | Purity % ([2]; RH 90%, day 5): 98.26% | Weight gain % ([2]; RH 90%, day 5): 2.93% | Color and character ([2]; RH 90%, day 10): white solid | Purity % ([2]; RH 90%, day 10): 98.28% | Weight gain % ([2]; RH 90%, day 10): 3.19% | Color and character ([2]; RH 90%, day 30): white solid | Crystal form ([2]; RH 90%, day 30): No changed | Purity % ([2]; RH 90%, day 30): 98.30% | Weight gain % ([2]; RH 90%, day 30): 10.70% | Color and character ([2]; heating 40° C., day 5): white solid | Purity % ([2]; heating 40° C., day 5): 98.28% | Color and character ([2]; heating 40° C., day 10): white solid | Purity % ([2]; heating 40° C., day 10): 98.31% | Color and character ([2]; heating 40° C., day 30): white solid | Crystal form ([2]; heating 40° C., day 30): No changed | Purity % ([2]; heating 40° C., day 30): 98.32% | Color and character ([2]; heating 60° C., day 5): white solid | Purity % ([2]; heating 60° C., day 5): 98.26% | Color and character ([2]; heating 60° C., day 10): white solid | Purity % ([2]; heating 60° C., day 10): 98.27% | Color and character ([2]; heating 60° C., day 30): white solid | Crystal form ([2]; heating 60° C., day 30): No changed | Purity % ([2]; heating 60° C., day 30): 98.30% | physical and chemical stability ([2]; illumination, 40° C., 60° C., high humidity 75% and 90%, storing for 30 days): good physical and chemical stability | Color and character ([2]; start, day 0): white solid | Purity % ([2]; start, day 0): 98.30% | Purity % ([3]; 25° C., 60% RH, 1 month): 98.3% | Purity % ([3]; 25° C., 60% RH, 2 months): 98.3% | Purity % ([3]; 25° C., 60% RH, 3 months): 98.3% | Purity % ([3]; 25° C., 60% RH, 6 months): 98.3% | Purity % ([3]; 25° C., 60% RH, start): 98.3% | Purity % ([3]; 40° C., 75% RH, 1 month): 98.3% | Purity % ([3]; 40° C., 75% RH, 2 months): 98.3% | Purity % ([3]; 40° C., 75% RH, 3 months): 98.3% | Purity % ([3]; 40° C., 75% RH, 6 months): 98.2% | Purity % ([3]; 40° C., 75% RH, start): 98.3% | physical and chemical stability ([3]; stored for 6 months, long-term (25° C., 60% RH) and acceleration (40° C., 75% RH)): excellent physical and chemical stability

C[C@H]1Cn2nnc(C(=O)N[C@H](C)C(F)(F)F)c2CN1C(=O)Nc1ccc(F)c(F)c1 [Compound B, (S)-N^5-(3,4-difluorophenyl)-6-methyl-N^3-((R)-1,1,1-trifluoropropan-2-yl)-6,7-dihydro-[1,2,3]triazolo[1,5-a]pyrazine-3,5(4H)-dicarbonamide]
bioavailability [4]: high | pharmacokinetic absorption [4]: good | CC50 (HepG2 cells [5]): > 100 µM | inhibitory effect on the normal assembly of HBV capsid protein (HBV capsid protein): obvious inhibitory effect | effect on the proliferation inhibition of HepG2 cells in vitro (HepG2 cells [6]): no or little effect | Emax (maximum inhibitory effect on HBV DNA replication) [7]: 100% | EC50 ([7]; read-out: EC50 (inhibition of HBV DNA replication)): 0.019 µM
